50 compounds from ChEMBL document CHEMBL2029339, “Acylthiourea, acylurea, and acylguanidine derivatives with potent hedgehog inhibiting activity” (J Med Chem, 2012) can be followed below.

For test [1], the target named is Smoothened (Mus musculus) (UniProt P56726). Briefly: Inhibition of Smo-mediated Hh signaling in mouse Shh-light2 cells at 3 uM by luciferase reporter gene assay. To be noted: Shh Light II. A general note: Reporter assays use an easily measured gene product as a stand-in for the process of interest.
In test [2] the test system is C3H 10T1/2. In words: Inhibition of SAG-induced differentiation of mouse mesenchymal pluripotent C3H10T1/2 cells to alkaline phosphatase positive oeseoblasts after 6 days. To be noted: C3H 10T1/2, 6 days.
Test [3] concerns C3H 10T1/2. Briefly: Inhibition of SAG-induced differentiation of mouse mesenchymal pluripotent C3H10T1/2 cells to alkaline phosphatase positive oeseoblasts at 10 uM after 6 days. To be noted: C3H 10T1/2, 6 days.
Test [4] has as its target Smoothened (Mus musculus) (UniProt P56726). Briefly: Inhibition of Smo-mediated Hh signaling in mouse Shh-light2 cells by luciferase reporter gene assay.
Test [5] shares this target. In words: Inhibition of Smo-mediated Hh signaling in mouse Shh-light2 cells at 0.3 uM by luciferase reporter gene assay. To be noted: Shh Light II.

In general, inhibition refers to the drop in the measured response relative to a control, in per cent. As a reminder, the IC50 is the midpoint of a concentration-inhibition curve.

Activity calls are given as the source filed them. No cut-off for these calls is given here.

Smoothened (Mus musculus), sequence (P56726 whole entry, looked up): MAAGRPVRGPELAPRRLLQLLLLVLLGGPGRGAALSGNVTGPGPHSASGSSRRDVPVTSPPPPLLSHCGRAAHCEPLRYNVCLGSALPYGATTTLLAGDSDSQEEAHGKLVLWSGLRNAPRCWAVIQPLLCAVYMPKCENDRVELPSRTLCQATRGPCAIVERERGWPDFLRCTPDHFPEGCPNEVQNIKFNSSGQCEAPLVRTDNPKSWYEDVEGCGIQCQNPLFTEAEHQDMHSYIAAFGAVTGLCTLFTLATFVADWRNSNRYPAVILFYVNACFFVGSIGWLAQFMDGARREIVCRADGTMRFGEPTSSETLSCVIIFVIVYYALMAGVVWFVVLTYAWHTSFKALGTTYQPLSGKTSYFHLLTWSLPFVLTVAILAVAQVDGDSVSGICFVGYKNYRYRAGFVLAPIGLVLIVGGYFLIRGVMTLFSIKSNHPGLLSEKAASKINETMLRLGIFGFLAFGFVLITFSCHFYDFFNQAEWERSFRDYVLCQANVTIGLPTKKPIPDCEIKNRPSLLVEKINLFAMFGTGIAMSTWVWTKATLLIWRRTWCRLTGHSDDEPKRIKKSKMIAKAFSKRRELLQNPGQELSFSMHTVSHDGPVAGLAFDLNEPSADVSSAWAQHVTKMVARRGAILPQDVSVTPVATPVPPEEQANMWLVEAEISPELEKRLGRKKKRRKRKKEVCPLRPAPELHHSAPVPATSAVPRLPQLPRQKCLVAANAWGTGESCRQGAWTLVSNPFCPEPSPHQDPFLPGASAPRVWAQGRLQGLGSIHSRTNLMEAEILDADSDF

`CCOc1cc(C(=O)NC(=S)Nc2cccc(NC(=O)c3ccccc3)c2)cc(OCC)c1OCC`: the inhibition in test [1] stood at 100%. In test [2], this compound returned an IC50 of 800 nM.
As to `COc1cc(C(=O)NC(=S)Nc2cccc(NC(=O)c3ccc4ccccc4c3)c2)cc(OC)c1OC`, the inhibition in test [1] was found to be 24%. The inhibition at 10 µM in test [3] is 59%.
`COc1cc(C(=O)NC(=N)Nc2cccc(-n3ccc4ccccc43)c2)cc(OC)c1OC`: the IC50 stood at 900 nM in test [4] and 390 nM in test [2].
Turning to `COc1ccc(C(=O)NC(=S)Nc2cccc(NC(=O)c3ccccc3)c2)cc1OC`, the inhibition in test [1] is 71%. The inhibition at 10 µM in test [3] came out at 45%.
On to `COc1cc(C(=O)NC(=S)Nc2cccc(NC(=O)C3CCCCC3)c2)cc(OC)c1OC`, for which the inhibition in test [1] was 14%. Further, the inhibition at 10 µM in test [3] is 26%.
The like results for `COc1cc(C(=O)NC(=S)Nc2cccc(NC(=O)c3ccc(N4CCOCC4)cc3)c2)cc(OC)c1OC` were, in that order, 90% and 55%.
With `COc1cc(C(=O)NC(=N)Nc2cccc(NC(=O)c3ccc(N4CCOCC4)cc3)c2)cc(OC)c1OC`, the figures for the IC50 in test [4] and in test [2] were 220 nM and 200 nM, respectively.
In the case of `COc1cc(C(=O)NC(=S)Nc2cccc(NC(=O)c3cccc4ccccc34)c2)cc(OC)c1OC`, in test [1], the inhibition worked out at 64%. Also, the inhibition at 10 µM in test [3] turned out to be 63%.
In the case of `COc1ccc(C(=O)NC(=S)Nc2cccc(NC(=O)c3ccccc3)c2)c(OC)c1`, in test [1], the inhibition was 34%. In test [2], half-maximal inhibition (IC50) required 4100 nM.
`COc1cc(C(=O)NC(=S)Nc2cc(NC(=O)c3ccccc3)ccc2F)cc(OC)c1OC`: the inhibition in test [1] worked out at 92%; in test [5], 4%. In addition, the inhibition at 10 µM in test [3] was 97%.
`COc1cc(OC)cc(C(=O)NC(=S)Nc2cccc(NC(=O)c3ccccc3)c2)c1`: the inhibition in test [1] came out at 84%. The compound further showed an IC50 in test [2] of 1900 nM.
As for `COc1cc(C(=O)NC(=S)Nc2cccc(NC(=O)c3ccc(-c4ccccc4)cc3)c2C)cc(OC)c1OC`, the inhibition in test [1] was 48%; in test [5], 9%. The inhibition at 10 µM in test [3] worked out at 7%.
For `COc1cc(C(=O)NC(=S)Nc2ccc(Cl)c(C(=O)Nc3ccc(Cl)cc3)c2)cc(OC)c1OC`, in that order: 98%, 7% and 96%.
For the compound `COc1cc(C(=O)NC(=N)Nc2ccc(C)c(C(=O)Nc3ccccc3)c2)cc(OC)c1OC`, the IC50 in test [4] stood at 190 nM; in test [2], 200 nM.
As to `COc1cc(C(=O)NC(=S)Nc2cccc(NC(=O)c3cccs3)c2)cc(OC)c1OC`, in test [1], the inhibition was determined as 13%. In addition, the inhibition at 10 µM in test [3] came to 60%.
For the compound `COc1cc(C(=O)NC(=O)Nc2cccc(NC(=O)c3ccc(-c4ccccc4)cc3)c2C)cc(OC)c1OC`, the figures for the inhibition in test [1] and in test [5] were 99% and 26%, respectively. For the same compound, the inhibition at 10 µM in test [3] came out at 104%.
In the case of `COc1cc(C(=O)NC(=N)Nc2cccc(NC(=O)c3ccc(-c4ccc(F)cc4)cc3)c2)cc(OC)c1OC`, the IC50 in test [4] was found to be 33 nM; in test [2] it was 30 nM.
With `COc1cc(C(=O)NC(=S)Nc2cccc(NC(=O)Nc3ccc(-c4ccccc4)cc3)c2)cc(OC)c1OC`, the inhibition in test [1] was 71%. The inhibition at 10 µM in test [3] turned out to be 91%.
For `COc1cc(C(=O)NC(=S)Nc2cccc(NC(=O)C(C)C)c2)cc(OC)c1OC`, in that order: 6% and 6%.
In the case of `COc1ccc(C(=O)Nc2cccc(NC(=O)NC(=O)c3cc(OC)c(OC)c(OC)c3)c2)cc1`, the results for the inhibition in test [1] and in test [5] were 103% and 40%, respectively. Also, the inhibition at 10 µM in test [3] was 99%.
Take `COc1cc(C(=O)NC(=O)Nc2cccc(NC(=O)c3ccccc3)c2)cc2c1OCO2`: the inhibition in test [1] amounted to 2%; in test [5] it was 1%. In addition, in test [3], the inhibition at 10 µM was found to be 32%.
The like results for `COc1cc(C(=O)NC(=O)Nc2cccc(NC(=O)c3ccc4ccccc4c3)c2)cc(OC)c1OC` were, in that order, 3%, 1% and 4%.
For `CCOc1cc(C(=O)NC(=S)Nc2cccc(NC(=O)c3ccccc3)c2)cc(OC)c1OCC`, the inhibition in test [1] came to 100%. For the same compound, in test [2], inhibition was half-maximal at 800 nM (IC50).
Turning to `CCOc1c(OC)cc(C(=O)NC(=S)Nc2cccc(NC(=O)c3ccccc3)c2)cc1OC`, the inhibition in test [1] came out at 99%. Besides, half-maximal inhibition in test [2] (IC50) required 600 nM.
`COc1cc(C(=O)NC(=S)Nc2cccc(NC(=O)c3ccccc3Cl)c2)cc(OC)c1OC`: the inhibition in test [1] was found to be 66%. This compound came in with an IC50 in test [2] of 2500 nM. For the same compound, the inhibition at 10 µM in test [3] was 80%.
For `COc1cc(C(=O)NC(=S)Nc2cccc(NC(=O)Nc3ccccc3)c2)cc(OC)c1OC`, the inhibition in test [1] is 78%. The inhibition at 10 µM in test [3] turned out to be 104%.
As to `COc1cc(C(=O)NC(=S)Nc2cccc(NC(=O)c3ccccc3)c2C)cc(OC)c1OC`, the figures for the inhibition in test [1] and in test [5] were 54% and 2%, respectively. For the same compound, in test [3], the inhibition at 10 µM worked out at 44%.
For `CCOc1cc(C(=O)NC(=O)Nc2cccc(NC(=O)c3ccccc3)c2)cc(OCC)c1OCC`, in that order: 24%, 13% and 45%.
For the compound `COc1cc(C(=O)NC(=N)Nc2ccc(C)c(NC(=O)c3ccccc3)c2)cc(OC)c1OC`, the inhibition in test [5] worked out at 88%. The same compound registered an IC50 in test [2] of 180 nM.
As to `COc1cc(C(=O)NC(=S)Nc2ccc(F)c(NC(=O)c3ccccc3)c2)cc(OC)c1OC`, the inhibition in test [1] turned out to be 98%; in test [5], 21%. For the same compound, the inhibition at 10 µM in test [3] stood at 96%.
On to `COc1cc(C(=O)NC(=S)Nc2cccc(NC(=O)c3ccncc3)c2)cc(OC)c1OC`, for which the inhibition in test [1] was found to be 67%. Besides, the inhibition at 10 µM in test [3] was 82%.
Regarding `COc1cc(C(=O)NC(=O)Nc2cccc(NC(=O)C(C)C)c2)cc(OC)c1OC`, the inhibition amounted to 62% in test [1] and 4% in test [5]. The inhibition at 10 µM in test [3] amounted to 99%.
For `COc1cc(C(=O)NC(=O)Nc2cccc(NC(=O)c3ccc(Cl)cc3)c2)cc(OC)c1OC`, in that order: 96%, 6% and 95%.
Regarding `COc1cc(C(=O)NC(=S)Nc2ccc(Cl)c(C(=O)Nc3ccc(N(C)C)cc3)c2)cc(OC)c1OC`, the figures for the inhibition in test [1] and in test [5] were 99% and 4%, respectively. Further, the inhibition at 10 µM in test [3] was 98%.
Turning to `COc1ccc(C(=O)Nc2cccc(NC(=S)NC(=O)c3cc(OC)c(OC)c(OC)c3)c2)cc1`, the inhibition in test [1] came out at 93%. In addition, the IC50 in test [2] worked out at 1600 nM. Besides, the inhibition at 10 µM in test [3] worked out at 85%.
Take `COc1ccc(NC(=S)NC(=O)c2cc(OC)c(OC)c(OC)c2)cc1NC(=O)c1ccccc1`: the figures for the inhibition in test [1] and in test [5] were 33% and 1%, respectively. The inhibition at 10 µM in test [3] came out at 8%.
For the compound `COc1cc(C(=O)NC(=S)Nc2cccc(NC(=O)c3ccco3)c2)cc(OC)c1OC`, the inhibition in test [1] turned out to be 53%. Besides, the inhibition at 10 µM in test [3] amounted to 67%.
As for `COc1cc(C(=O)NC(=S)Nc2ccc(C)c(NC(=O)c3ccccc3)c2)cc(OC)c1OC`, the inhibition turned out to be 100% in test [1] and 60% in test [5]. This compound also showed an IC50 in test [2] of 900 nM. Besides, the inhibition at 10 µM in test [3] was 99%.
Regarding `COc1cc(C(=O)NC(=S)Nc2cccc(NC(=O)c3ccccc3)c2)cc2c1OCO2`, in test [1], the inhibition was 92%. The IC50 in test [2] was 1100 nM.
As for `COc1cccc(C(=O)Nc2cccc(NC(=S)NC(=O)c3cc(OC)c(OC)c(OC)c3)c2)c1`, the inhibition in test [1] was 99%. For the same compound, half-maximal inhibition in test [2] (IC50) required 2000 nM. In addition, in test [3], the inhibition at 10 µM was 89%.
Take `COc1cc(C(=O)NC(=S)Nc2ccc(C)c(NC(=O)c3cccc(-c4ccccc4)c3)c2)cc(OC)c1OC`: the inhibition in test [1] came to 100%; in test [5] it was 72%. In test [2], this compound gave an IC50 of 600 nM. Further, the inhibition at 10 µM in test [3] is 97%.
For `COc1cc(C(=O)NC(=S)Nc2cccc(-n3cnc4ccccc43)c2)cc(OC)c1OC`, the inhibition in test [1] stood at 84%. Moreover, the inhibition at 10 µM in test [3] came to 60%.
`COc1cc(C(=O)NC(=S)Nc2cccc(NC(=O)c3ccc(Cl)cc3)c2)cc(OC)c1OC`: in test [1], the inhibition came out at 99%. Besides, it took 800 nM to reach half-maximal inhibition in test [2] (IC50). In test [3], the inhibition at 10 µM is 96%.
For `COc1ccc(NC(=O)c2cc(NC(=S)NC(=O)c3cc(OC)c(OC)c(OC)c3)ccc2Cl)cc1`, the inhibition in test [1] was 100%; in test [5], 10%. In test [3], the inhibition at 10 µM was found to be 88%.
For the compound `COc1cc(C(=O)NC(=S)Nc2ccc(C)c(NC(=O)c3ccc(Oc4ccccc4)cc3)c2)cc(OC)c1OC`, the inhibition in test [1] amounted to 97%; in test [5], 59%. In test [2], this compound yielded an IC50 of 500 nM. Also, in test [3], the inhibition at 10 µM worked out at 99%.
Turning to `COc1cc(C(=O)NC(=S)Nc2cccc(-n3ccc4ccccc43)c2)cc(OC)c1OC`, the inhibition in test [1] came to 69%. In addition, the inhibition at 10 µM in test [3] amounted to 92%.
Turning to `COc1cc(C(=O)NC(=S)Nc2cccc(-c3cn4ccsc4n3)c2)cc(OC)c1OC`, the IC50 in test [4] was 1100 nM. Besides, in test [1], the inhibition was found to be 92%. Besides, in test [3], the inhibition at 10 µM amounted to 98%.
Turning to `COc1cc(C(=O)NC(=S)Nc2cccc(NC(=O)c3cc(OC)c(OC)c(OC)c3)c2)cc(OC)c1OC`, the inhibition in test [1] was determined as 37%. Also, the inhibition at 10 µM in test [3] was found to be 74%.
On to `O=C(NC(=S)Nc1cccc(NC(=O)c2ccccc2)c1)c1ccc2c(c1)OCCO2`, for which, in test [1], the inhibition result is “inactive”.
Turning to `COc1ccccc1C(=O)Nc1cccc(NC(=S)NC(=O)c2cc(OC)c(OC)c(OC)c2)c1`, the inhibition in test [1] turned out to be 49%. This compound also yielded an IC50 in test [2] of 2000 nM. The inhibition at 10 µM in test [3] was 99%.
